“Also recorded” adds a separate entry of the source.
Tests used:
[1] = target: T1, PLD1 (Homo sapiens, UniProt Q13393); details: cellular assay, Calu-1 cells
T1 sequence (Q13393 1-1074): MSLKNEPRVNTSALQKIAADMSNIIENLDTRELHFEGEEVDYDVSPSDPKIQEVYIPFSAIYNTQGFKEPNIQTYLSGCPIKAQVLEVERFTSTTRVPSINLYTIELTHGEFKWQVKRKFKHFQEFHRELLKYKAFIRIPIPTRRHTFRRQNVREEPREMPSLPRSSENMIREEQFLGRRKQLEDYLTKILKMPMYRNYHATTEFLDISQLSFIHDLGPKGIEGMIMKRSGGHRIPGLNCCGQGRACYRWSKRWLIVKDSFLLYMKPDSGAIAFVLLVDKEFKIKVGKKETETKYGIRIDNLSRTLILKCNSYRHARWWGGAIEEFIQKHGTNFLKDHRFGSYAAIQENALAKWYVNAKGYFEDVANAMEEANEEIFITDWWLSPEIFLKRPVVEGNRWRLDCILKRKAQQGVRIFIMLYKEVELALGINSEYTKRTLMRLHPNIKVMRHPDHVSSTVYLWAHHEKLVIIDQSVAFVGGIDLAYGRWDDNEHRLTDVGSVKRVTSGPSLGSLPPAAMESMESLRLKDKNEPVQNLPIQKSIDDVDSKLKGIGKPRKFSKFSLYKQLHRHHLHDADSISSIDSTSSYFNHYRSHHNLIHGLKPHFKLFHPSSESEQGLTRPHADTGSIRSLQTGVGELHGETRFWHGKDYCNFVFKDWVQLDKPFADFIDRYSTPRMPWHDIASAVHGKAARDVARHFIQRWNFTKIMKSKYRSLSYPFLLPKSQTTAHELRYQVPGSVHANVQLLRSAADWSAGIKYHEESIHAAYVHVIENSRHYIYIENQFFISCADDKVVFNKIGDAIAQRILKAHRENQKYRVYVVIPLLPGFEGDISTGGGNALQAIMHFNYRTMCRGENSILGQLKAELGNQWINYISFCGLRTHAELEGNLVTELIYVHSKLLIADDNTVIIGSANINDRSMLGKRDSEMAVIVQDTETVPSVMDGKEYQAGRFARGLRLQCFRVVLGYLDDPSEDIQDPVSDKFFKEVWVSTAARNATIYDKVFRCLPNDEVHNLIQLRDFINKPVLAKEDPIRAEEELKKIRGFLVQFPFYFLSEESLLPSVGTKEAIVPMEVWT

[2] = target: PLD2 (Homo sapiens, UniProt O14939); details: cellular assay, HEK293-gfpPLD2 cells
[3] = target: T1, PLD1; experiment: cell-based

Sequence of PLD2 (O14939 whole entry): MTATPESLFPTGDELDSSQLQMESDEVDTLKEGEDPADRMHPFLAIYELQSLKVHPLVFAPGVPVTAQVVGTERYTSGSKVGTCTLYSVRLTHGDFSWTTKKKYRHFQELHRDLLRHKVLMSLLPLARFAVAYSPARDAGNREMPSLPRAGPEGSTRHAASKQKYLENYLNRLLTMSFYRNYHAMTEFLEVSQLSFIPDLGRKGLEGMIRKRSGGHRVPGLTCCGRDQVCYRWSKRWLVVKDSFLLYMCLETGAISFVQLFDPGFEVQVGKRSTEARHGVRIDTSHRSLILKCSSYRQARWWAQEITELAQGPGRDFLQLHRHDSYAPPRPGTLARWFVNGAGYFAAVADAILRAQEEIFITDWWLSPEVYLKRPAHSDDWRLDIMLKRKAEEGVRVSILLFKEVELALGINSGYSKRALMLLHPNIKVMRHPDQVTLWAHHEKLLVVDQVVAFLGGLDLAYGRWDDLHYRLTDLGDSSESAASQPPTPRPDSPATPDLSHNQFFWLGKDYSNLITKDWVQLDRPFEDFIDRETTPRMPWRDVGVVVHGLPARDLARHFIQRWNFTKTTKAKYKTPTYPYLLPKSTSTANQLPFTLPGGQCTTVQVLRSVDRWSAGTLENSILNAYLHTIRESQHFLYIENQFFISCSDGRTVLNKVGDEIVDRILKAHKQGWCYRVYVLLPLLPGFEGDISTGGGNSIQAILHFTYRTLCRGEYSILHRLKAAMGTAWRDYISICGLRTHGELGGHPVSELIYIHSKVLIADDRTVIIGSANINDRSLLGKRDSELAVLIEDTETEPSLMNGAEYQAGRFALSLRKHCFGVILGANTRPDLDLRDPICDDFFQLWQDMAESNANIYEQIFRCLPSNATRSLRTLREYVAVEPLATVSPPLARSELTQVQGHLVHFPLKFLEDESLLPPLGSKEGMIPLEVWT

SMILES | PLD1 inhibition (in words) [1] | PLD2 inhibition (in words) [2] | IC50 [3]
O=C(NCCN1CCC2(CC1)C(=O)NCN2c1ccccc1)[C@H]1C[C@@H]1c1ccccc1 [Compound 9a] | inactive on both PLD isoforms; also recorded: complete loss of PLD inhibition | inactive on both PLD isoforms; also recorded: complete loss of PLD inhibition | 
O=C(NCCN1CCC2(CC1)C(=O)NCN2c1ccccc1)c1cnc2ccccc2n1 [Compound 9g] | complete loss of PLD inhibitory activity | complete loss of PLD inhibitory activity | 
C[C@@H](CN1CCC2(CC1)C(=O)NCN2c1ccccc1)NC(=O)[C@H]1C[C@@H]1c1ccccc1 [Compound 10b] |  | no effect, relative to 9a, on PLD2 inhibition | 
c1cc(N2CCNCC2)ccn1 [Compound 15] |  |  | 3.6 to 18 µM
c1ccc(N2CCNCC2)nc1 [Compound 16] |  |  | 3.6 to 18 µM

Reference: article PMC3800051 (Bioorganic & medicinal chemistry letters, 2009)
